In US11180503B2, “[1,2,4]Triazolo[4,3-A]pyrazin-6(5H)-one derivatives” (Eli Lilly and Company, priority 2017, dated 2021):

What was measured:
Format in all cases: biochemical
human PDE1A = human PDE1A (Homo sapiens (Human), UniProt P54750); experiment: Ca2+-calmodulin dependent PDE enzyme assay (radiometric SPA, [3H]cAMP); conditions: human PDE1A 0.25 nM, [3H]cAMP 47 nM; read-out: PDE 1A IC50
Excerpt: (§1) The nucleotide sequences encoding full-length human PDE1A (NP_001003683.1) and PDE1C (NP_005011.1) are inserted into pFastBac1 (Invitrogen) vector with an N-terminal HIS tag. The nucleotide sequences encoding full-length human PDE4D (NP_006194.2) and catalytic domain (residue 641-1141) of PDE3A (NP_000912.3) are inserted into pFastBac1 (Invitrogen) vector with a C-terminal HIS tag. The nucleotide sequences encoding full-length human PDE6A (NP_000431.2) and PDE6B (AAH00249.1) are inserted into pFastBacDual (Invitrogen) vector with an N-terminal HIS tag and N-terminal Flag tag, respectively, for production of PDE6A/6B dimer. Baculovirus generation and protein expression in Sf9 cells are carried out according to the protocol of Bac-to-Bac Baculovirus Expression system (Invitrogen). The nucleotide sequence encoding full-length human PDE1B (NP_000915.1) is inserted into pIEX4 (Novagen) with a C-terminal HIS tag, and both protein productions in Sf9 cells are carried out according to the vendor's protocol (Novagen). The His tagged PDE proteins are purified using Ni-NTA agarose (Qiagen) followed by size exclusion chromatography on a SUPERDEX® 200 column (GE Healthcare) in storage buffer (20 mM Tris-HCl, pH7.5, 150 mM NaCl, 10% Glycerol). The Flag tagged PDE proteins including PDE6A/6B are purified using anti-Flag M2-agarose (Sigma), after purification through NiNTA column chromatography and eluted in storage buffer (50 mM Tris-HCl, pH7.5, 150 mM NaCl, 10% Glycerol, 0.1 mg/ml Flag peptide). All purified proteins are stored at −80° C. in small aliquots.
(§2) All 3′,5′ cyclic nucleotide phosphodiesterase (PDE) enzyme activities are measured with a radiometric enzyme assay based on SPA detection system (scintillation proximity assay). Compounds to be tested are diluted in pure dimethyl sulfoxide (DMSO) using ten point concentration response curves. Maximal compound concentration in the reaction mixture is either 10 or 100 μM. Compounds at the appropriate concentration are pre-incubated with either of the PDE enzymes for 30 minutes before the reaction is started by the addition of substrate. Reactions are allowed to proceed for 60 minutes at room temperature. Next, reactions are stopped by addition of SPA beads. Samples are read 12 hours later in a MICROBETA™ TRILUX® Counter. “IC50” refers to the concentration of the compound that produces 50% of the maximal inhibitory response possible for that compound. IC50 values are calculated by plotting the normalized data vs. log [compound] and fitting the data using a four parameter logistic equation.
(§3) PDE1B, PDE1A, and PDE1C are cloned and purified following standard protein generation procedures. The assay buffer is prepared to give a final concentration in the assay of 50 mM Tris-HCl, 50 mM MgCl2, 4 mM CaCl2, 0.1% Bovine serum albumin and 6 U/ml Calmodulin in water, at pH 7.5. The final enzyme concentration is 0.25, 0.074 and 0.0012 nM, for PDE1A, PDE1B and PDE1C respectively. The reactions are started by addition of the substrate, [^3H]cAMP, to give a final concentration of 47 nM.

human PDE1B = human PDE1B (Homo sapiens (Human), UniProt Q01064); experiment: as above; conditions: human PDE1B 0.074 nM, [3H]cAMP 47 nM; read-out: PDE 1B IC50
Excerpt: as §1, §2, §3

human PDE1C = human PDE1C (Homo sapiens (Human), UniProt Q14123); experiment: as above; conditions: human PDE1C 0.0012 nM, [3H]cAMP 47 nM; read-out: PDE 1C IC50
Excerpt: as §1, §2, §3

[1] = target: human PDE3A (catalytic domain) (Homo sapiens (Human), UniProt Q14432); experiment: PDE enzyme assay using [3H]cAMP as substrate (radiometric SPA); conditions: human PDE3A catalytic domain 0.008 nM, [3H]cAMP 47 nM
Chain of human PDE3A (catalytic domain) (Q14432 641-1141): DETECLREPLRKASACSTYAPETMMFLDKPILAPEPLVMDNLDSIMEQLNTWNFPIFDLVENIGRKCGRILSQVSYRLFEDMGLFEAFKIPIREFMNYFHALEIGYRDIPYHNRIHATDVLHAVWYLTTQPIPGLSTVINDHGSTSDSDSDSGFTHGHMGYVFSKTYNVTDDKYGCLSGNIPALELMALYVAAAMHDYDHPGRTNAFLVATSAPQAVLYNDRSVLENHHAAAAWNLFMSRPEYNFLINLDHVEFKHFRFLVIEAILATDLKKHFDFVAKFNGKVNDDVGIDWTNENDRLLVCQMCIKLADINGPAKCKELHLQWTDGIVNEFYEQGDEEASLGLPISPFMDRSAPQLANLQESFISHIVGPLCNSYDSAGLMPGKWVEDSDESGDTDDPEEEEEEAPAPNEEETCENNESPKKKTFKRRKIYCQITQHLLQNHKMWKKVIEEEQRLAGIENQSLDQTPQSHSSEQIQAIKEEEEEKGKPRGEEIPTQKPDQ
Excerpt: as §1, §2
(§4) The following phosphodiesterase activities are measured using [^3H]cAMP as reaction substrate: human PDE3A (catalytic domain) and human PDE4D. Both enzymes are cloned and purified following standard procedures. The assay buffer is prepared to give a final concentration in the assay of 50 mM Tris-HCl, 8.3 mM MgCl2, 1.7 mM ethylenediaminetetraacetic acid (EDTA) and 0.1% Bovine serum albumin at pH 7.5. Final enzyme concentrations are 0.008 and 0.021 nM for PDE3A and PDE4D, respectively. Reactions are started by addition of the substrate, [^3H]cAMP, to give a final concentration of 47 nM.

human PDE4D = human PDE4D (Homo sapiens (Human), UniProt Q08499); experiment: as above; conditions: human PDE4D 0.021 nM, [3H]cAMP 47 nM; read-out: PDE 4D IC50
Chain of human PDE4D (Q08499 other isoform, or with tags, fused parts or gaps): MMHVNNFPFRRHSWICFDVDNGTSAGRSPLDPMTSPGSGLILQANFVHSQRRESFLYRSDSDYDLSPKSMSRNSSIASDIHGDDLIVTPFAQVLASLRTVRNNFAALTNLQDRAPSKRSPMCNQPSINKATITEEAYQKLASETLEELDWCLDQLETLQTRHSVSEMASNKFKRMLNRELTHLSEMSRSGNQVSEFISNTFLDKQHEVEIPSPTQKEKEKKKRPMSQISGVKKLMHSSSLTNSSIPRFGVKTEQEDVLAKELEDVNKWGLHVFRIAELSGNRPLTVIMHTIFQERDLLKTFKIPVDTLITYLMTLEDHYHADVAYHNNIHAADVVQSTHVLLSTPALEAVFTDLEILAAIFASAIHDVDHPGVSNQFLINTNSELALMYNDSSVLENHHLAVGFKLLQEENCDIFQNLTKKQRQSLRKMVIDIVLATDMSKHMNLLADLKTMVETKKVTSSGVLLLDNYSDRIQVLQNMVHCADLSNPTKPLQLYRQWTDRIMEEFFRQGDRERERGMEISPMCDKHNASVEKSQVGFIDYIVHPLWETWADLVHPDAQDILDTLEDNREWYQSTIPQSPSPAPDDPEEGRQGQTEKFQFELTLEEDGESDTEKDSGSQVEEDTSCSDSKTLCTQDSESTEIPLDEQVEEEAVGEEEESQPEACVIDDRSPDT
Excerpt: as §1, §2, §4

human PDE6A/6B = human PDE6A/6B (Homo sapiens (Human), UniProt P16499+P35913); experiment: PDE enzyme assay using [3H]cGMP as substrate (radiometric SPA); conditions: human PDE6A/6B dimer 5 nM, [3H]cGMP 80 nM; read-out: PDE 6AB IC50
Chain of human PDE6A/6B (P16499 whole entry, change not shown): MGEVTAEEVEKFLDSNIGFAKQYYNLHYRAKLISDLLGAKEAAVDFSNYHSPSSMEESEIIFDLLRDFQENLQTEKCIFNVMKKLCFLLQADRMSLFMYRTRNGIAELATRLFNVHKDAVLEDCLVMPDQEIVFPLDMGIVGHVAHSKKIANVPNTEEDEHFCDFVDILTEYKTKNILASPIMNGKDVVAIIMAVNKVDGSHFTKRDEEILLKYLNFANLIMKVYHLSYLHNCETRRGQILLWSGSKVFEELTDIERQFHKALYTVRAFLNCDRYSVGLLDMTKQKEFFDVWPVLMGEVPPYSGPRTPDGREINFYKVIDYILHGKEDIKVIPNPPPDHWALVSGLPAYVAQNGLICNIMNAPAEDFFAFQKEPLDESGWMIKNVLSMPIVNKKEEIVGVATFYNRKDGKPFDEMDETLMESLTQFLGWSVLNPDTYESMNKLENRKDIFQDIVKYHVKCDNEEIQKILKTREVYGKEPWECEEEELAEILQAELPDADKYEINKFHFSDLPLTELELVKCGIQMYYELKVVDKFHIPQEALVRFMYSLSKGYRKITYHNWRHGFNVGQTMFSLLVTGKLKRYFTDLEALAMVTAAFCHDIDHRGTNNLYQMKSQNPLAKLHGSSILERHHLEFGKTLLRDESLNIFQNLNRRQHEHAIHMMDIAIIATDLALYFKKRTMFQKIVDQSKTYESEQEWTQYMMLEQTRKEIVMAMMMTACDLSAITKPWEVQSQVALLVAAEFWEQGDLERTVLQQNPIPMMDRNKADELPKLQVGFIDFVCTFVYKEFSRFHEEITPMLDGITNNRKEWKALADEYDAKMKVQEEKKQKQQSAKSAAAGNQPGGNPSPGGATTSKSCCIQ
Chain of human PDE6A/6B (P35913 other isoform, or with tags, fused parts or gaps isoform P35913-2): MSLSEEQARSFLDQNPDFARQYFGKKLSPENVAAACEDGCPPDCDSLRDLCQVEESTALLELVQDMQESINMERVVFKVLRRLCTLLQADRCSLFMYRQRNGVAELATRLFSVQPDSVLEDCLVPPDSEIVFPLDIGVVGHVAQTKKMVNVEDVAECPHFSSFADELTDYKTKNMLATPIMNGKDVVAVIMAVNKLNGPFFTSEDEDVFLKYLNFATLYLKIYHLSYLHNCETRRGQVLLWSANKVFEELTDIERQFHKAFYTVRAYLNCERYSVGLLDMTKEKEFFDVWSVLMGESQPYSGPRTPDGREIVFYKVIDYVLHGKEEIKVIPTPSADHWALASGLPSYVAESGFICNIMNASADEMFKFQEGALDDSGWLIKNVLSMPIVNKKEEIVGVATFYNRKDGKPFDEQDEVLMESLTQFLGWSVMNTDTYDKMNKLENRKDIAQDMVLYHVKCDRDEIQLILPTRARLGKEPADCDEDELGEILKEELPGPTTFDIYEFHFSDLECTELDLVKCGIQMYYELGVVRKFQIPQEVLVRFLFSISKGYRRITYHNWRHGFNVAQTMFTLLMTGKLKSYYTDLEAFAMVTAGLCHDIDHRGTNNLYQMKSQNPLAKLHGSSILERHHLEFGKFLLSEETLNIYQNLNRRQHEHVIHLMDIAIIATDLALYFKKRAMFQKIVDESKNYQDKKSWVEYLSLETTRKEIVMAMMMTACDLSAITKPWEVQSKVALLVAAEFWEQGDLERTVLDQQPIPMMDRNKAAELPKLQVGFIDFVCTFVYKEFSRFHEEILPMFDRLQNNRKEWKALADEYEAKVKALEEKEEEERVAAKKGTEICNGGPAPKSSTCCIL
Excerpt: as §1, §2
The following phosphodiesterase activities are measured using [^3H]cGMP as reaction substrate: human PDE6A/6B. The catalytic active form of human PDE6 is a dimer composed of a α (human PDE6A) and β subunits (human PDE6B). The dimer of human PDE6A/6B is produced by the coexpression and purification strategy, using two purification steps, i.e., NiNTA and anti-FLAG Sepharose chromatography. The assay buffer is prepared to give a final concentration in the assay of 50 mM Tris-HCl, 8.3 mM MgCl2, 1.7 mM EDTA and 0.1% Bovine serum albumin at pH 7.5. The final enzyme concentration is 5 nM. The reactions are started by addition of the substrate, [^3H]cGMP, to give a final concentration of 80 nM.

## CCC(Cn1c(=O)c2nnc(C3(C4CC4)CC3)n2c2ncccc21)OC (racemic) [Example 4, rac-9-([1,1′-Bi(cyclopropan)]-1-yl)-5-(2-methoxybutyl)-pyrido[3,2-e][1,2,4]triazolo[4,3-a]pyrazin-6(5H)-one]
Human PDE1A
  IC50: 13.9 ± 2.06 nM
Human PDE1B
  IC50: 33.5 ± 6.26 nM
Human PDE1C
  IC50: 0.609 ± 0.128 nM
[1]
  IC50: > 100000 nM
Human PDE4D
  IC50: 33600 nM
Human PDE6A/6B
  IC50: > 10000 nM

## CCC(Cn1c(=O)c2nnc(C3(C4CC4)CC3)n2c2ncccc21)OC (single isomer, unassigned) [Example 4a, 9-([1,1′-bi(cyclopropan)]-1-yl)-5-(2-methoxybutyl)pyrido[3,2-e][1,2,4]triazolo[4,3-a]pyrazin-6(5H)-one]
Human PDE1A
  IC50: 26.8 nM
Human PDE1B
  IC50: 40.1 nM
Human PDE1C
  IC50: 1.49 nM
[1]
  IC50: > 100000 nM
Human PDE4D
  IC50: > 100000 nM
Human PDE6A/6B
  IC50: > 10000 nM

## CCC(Cn1c(=O)c2nnc(C3(C4CC4)CC3)n2c2ncccc21)OC (single isomer, unassigned) [Example 4b, 9-([1,1′-bi(cyclopropan)]-1-yl)-5-(2-methoxybutyl)pyrido[3,2-e][1,2,4]triazolo[4,3-a]pyrazin-6(5H)-one]
Human PDE1A
  IC50: 15.1 ± 2.84 nM
Human PDE1B
  IC50: 25.8 ± 0.614 nM
Human PDE1C
  IC50: 1.46 ± 0.642 nM
Human PDE4D
  IC50: > 100000 nM

## CCCCn1c(=O)c2nnc(C3(C4CC4)CC3)n2c2ncc(C)cc21 [Example 1, 9-([1,1′-bi(cyclopropan)]-1-yl)-5-butyl-3-methylpyrido[3,2-e][1,2,4]triazolo[4,3-a]pyrazin-6(5H)-one]
Human PDE1A
  IC50: 0.366 ± 0.765 nM
Human PDE1B
  IC50: 0.406 ± 1.08 nM
Human PDE1C
  IC50: < 0.508 nM
[1]
  IC50: > 50000 nM
Human PDE4D
  IC50: 1590 ± 217 nM
Human PDE6A/6B
  IC50: ≥ 3450 nM

## CCCCn1c(=O)c2nnc(C3(C(F)(F)F)CC3)n2c2ncc(C)cc21 [Example 2, 5-Butyl-3-methyl-9-(1-(trifluoromethyl)cyclopropyl)pyrido[3,2-e][1,2,4]triazolo[4,3-a]pyrazin-6(5H)-one]
Human PDE1A
  IC50: 8.62 ± 2.53 nM
Human PDE1B
  IC50: 12.1 ± 1.06 nM
Human PDE1C
  IC50: 1.62 ± 0.231 nM
[1]
  IC50: > 100000 nM
Human PDE4D
  IC50: 26000 nM
Human PDE6A/6B
  IC50: > 10000 nM

## CCCn1c(=O)c2nnc(C3(C4CC4)CC3)n2c2ncc(C)cc21 [Example 3, 9-([1,1′-Bi(cyclopropan)]-1-yl)-3-methyl-5-propylpyrido[3,2-e][1,2,4]triazolo[4,3-a]pyrazin-6(5H)-one]
Human PDE1A
  IC50: 2.59 ± 1.69 nM
Human PDE1B
  IC50: 3.41 ± 1.52 nM
Human PDE1C
  IC50: 2.77 ± 0.636 nM
[1]
  IC50: > 100000 nM
Human PDE4D
  IC50: 2120 nM
Human PDE6A/6B
  IC50: > 10000 nM

## O=c1c2nnc(C3(C4CC4)CC3)n2c2nc(O)ccc2n1CC1CC1 [Example 5, 9-([1,1′-bi(cylopropan)]-1-yl)-5-(cyclopropylmethyl)-2-hydroxypyrido[3,2-e][1,2,4]triazolo[4,3-a]pyrazin-6(5H)-one]
Human PDE1A
  IC50: 2.75 ± 2.11 nM
Human PDE1B
  IC50: 2.41 ± 0.846 nM
Human PDE1C
  IC50: 0.931 ± 0.132 nM
[1]
  IC50: 22900 ± 1140 nM
Human PDE4D
  IC50: 14700 ± 8240 nM
Human PDE6A/6B
  IC50: > 10000 nM

## CCCCn1c(=O)c2nnc(C3(C)CC3)n2c2ncc(C)cc21 [Example 6, 5-butyl-3-methyl-9-(1-methylcyclopropyl)pyrido[3,2-e][1,2,4]triazolo[4,3-a]pyrazin-6(5H)-one]
Human PDE1A
  IC50: 11.6 ± 7.55 nM
Human PDE1B
  IC50: 15.4 ± 0.0529 nM
Human PDE1C
  IC50: 2.57 ± 0.544 nM
[1]
  IC50: > 100000 nM
Human PDE4D
  IC50: 6010 nM
Human PDE6A/6B
  IC50: 9590 nM

## CCCCn1c(=O)c2nnc(C3(C4CC4)CC3)n2c2nc(C)c(C)cc21 [Example 7, 9-([1,1′-Bi(cyclopropan)]-1-yl)-5-butyl-2,3-dimethylpyrido[3,2-e][1,2,4]triazolo[4,3-a]pyrazin-6(5H)-one]
Human PDE1A
  IC50: 0.343 ± 0.765 nM
Human PDE1B
  IC50: 0.4 ± 0.867 nM
Human PDE1C
  IC50: < 0.5 nM
[1]
  IC50: 71200 nM
Human PDE4D
  IC50: 3020 nM
Human PDE6A/6B
  IC50: 1200 nM

## CCCCn1c(=O)c2nnc(C3(C)CC3)n2c2ncc(CC)cc21 [Example 8, 5-butyl-3-ethyl-9-(1-methylcyclopropyl)pyrido[3,2-e][1,2,4]triazolo[4,3-a]pyrazin-6(5H)-one]
Human PDE1A
  IC50: 8.01 ± 3.55 nM
Human PDE1B
  IC50: 9.34 ± 4.33 nM
Human PDE1C
  IC50: 2.14 ± 0.997 nM
[1]
  IC50: > 100000 nM
Human PDE4D
  IC50: 957 nM
Human PDE6A/6B
  IC50: 3290 nM

## CCCCn1c(=O)c2nnc(C3(C4CC4)CC3)n2c2ncc(CC)cc21 [Example 9, 9-([1,1′-Bi(cyclopropan)]-1-yl)-5-butyl-3-ethylpyrido[3,2-e][1,2,4]triazolo[4,3-a]pyrazin-6(5H)-one]
Human PDE1C
  IC50: < 0.5 nM
Human PDE4D
  IC50: 675 nM

## CCCCn1c(=O)c2nnc(C3(C4CC4)CC3)n2c2ncc(C(C)C)cc21 [Example 10, 9-([1,1′-bi(cyclopropan)]-1-yl)-5-butyl-3-isopropylpyrido[3,2-e][1,2,4]triazolo[4,3-a]pyrazin-6(5H)-one]
Human PDE1A
  IC50: 0.26 ± 0.589 nM
Human PDE1B
  IC50: 0.396 ± 0.749 nM
Human PDE1C
  IC50: < 0.5 nM
[1]
  IC50: > 100000 nM
Human PDE4D
  IC50: 972 nM
Human PDE6A/6B
  IC50: 611 nM

## CCCCn1c(=O)c2nnc(C3(C4CC4)CC3)n2c2ncc(CO)cc21 [Example 11]
Human PDE1C
  IC50: < 0.5 nM
Human PDE4D
  IC50: 5560 nM

## CCCCn1c(=O)c2nnc(C3(C)CC3)n2c2ncc(CO)cc21 [Example 12, 5-Butyl-3-(hydroxymethyl)-9-(1-methylcyclopropyl)pyrido[3,2-e][1,2,4]triazolo[4,3-a]pyrazin-6(5H)-one]
Human PDE1A
  IC50: 23 ± 3.62 nM
Human PDE1B
  IC50: 17.4 ± 10 nM
Human PDE1C
  IC50: 4.02 ± 0.167 nM
[1]
  IC50: ≥ 93400 nM
Human PDE4D
  IC50: 5130 ± 2140 nM
Human PDE6A/6B
  IC50: 3060 ± 1450 nM

## CCCCn1c(=O)c2nnc(C3(C4CC4)CC3)n2c2nc(C)ccc21 [Example 13, 9-([1,1′-bi(cyclopropan)]-1-yl)-5-butyl-2-methylpyrido[3,2-e][1,2,4]triazolo[4,3-a]pyrazin-6(5H)-one]
Human PDE1A
  IC50: 0.816 ± 0.198 nM
Human PDE1B
  IC50: 1.13 ± 0.254 nM
Human PDE1C
  IC50: < 0.5 nM
[1]
  IC50: 19200 nM
Human PDE4D
  IC50: 2090 nM
Human PDE6A/6B
  IC50: 2990 nM
